Results as given in patent publication US5449667A, “Amidothiophosphate derivative and insecticide, nematocide and acaricide containing the same as active ingredient” (priority 1993, dated 1995).

Experiments:
[1] = system: larvae of Spodoptera litura; test: Insecticidal activity against larvae of Spodoptera litura; assay type: in vivo; details: 144 h, 4-instar larvae, artificial bait, after six days
Method: Biological Test 1 Insecticidal Activity Against Larvae of Spodoptera litura
Emulsifiable concentrates were prepared for each of the present compounds according to the formulation example 1. Thirteen grams of artificial bait for Spodoptera litura were placed in a polyethylene cup (diameter: 11 cm) and impregnated with 2 ml of the emulsifiable concentrate diluted with water (500 ppm). Ten 4-instar larvae of Spodoptera litura were put in the polyethylene cup. After six days, the mortality of the larvae was examined.

[2] = system: Blattella germanica; test: Insecticidal activity against Blattella germanica; assay type: in vivo; details: 24 h, 0.7 ml of 500 ppm on filter paper, ten male cockroaches, after one day
Method: Biological Test 3 Insecticidal Avtivity Against Blattella germanica
(§1) Filter paper of 5.5 cm in diameter was laid in the bottom of a polyethylene cup (diameter: 5.5 cm). After 0.7 ml of a 500 ppm aqueous solution obtained by diluting each emulsifiable concentrate prepared from each of the present compounds according to the formulation example 1 was dropped on the filter paper and approximately 30 mg of sucrose was uniformly scattered and put on the filter paper as bait, ten male cockroaches (Blattella germanica) were left in the cup with a cover. After one day, the mortality was examined for the cockroaches.

[3] = system: Musca domestica; test: Insecticidal activity against Musca domestica; assay type: in vivo; details: 24 h, 0.7 ml of 500 ppm on filter paper, ten female house flies, after one day
Method: Biological Test 4 Insecticidal Activity Against Musca domestica
as §1, with “scattered,” for “scattered”, “female house flies (Musca domestica)” for “male cockroaches (Blattella germanica)”, “flies.” for “cockroaches.”

[4] = system: larvae of Diabrotica undecimpunctata; test: Insecticidal activity against larvae of Diabrotica undecimpunctata; assay type: in vivo; details: 1 ml of 50 ppm on filter paper, approximately thirty eggs, after eight days
Method: Biological Text 5 Insecticidal Activity Against Larvae of Diabrotica undecimpunctata
Filter paper of 5.5 cm in diameter was laid in the bottom of a polyethylene cup (diameter: 5.5 cm). After 1 ml of a 50 ppm aqueous solution obtained by diluting each of the emulsifiable concentrate prepared from each of the present compounds according to the formulation example 1 was dropped on the filter paper and one sprouting corn crop was placed as bait on the paper, approximately thirty eggs of Diabrotica undecimpunctata were left on the filter paper. After eight days, the rate of hatched larvae was examined. The activity were evaluated according to the following criteria:
B: Mortality not less than 90% but less than 100%
C: Mortality less than 90%

[5] = system: root-knot nematodes; test: Activity against root-knot nematodes; assay type: in vivo; parameters: key: -: substantially no root knots; +: several to ten odds root knots; ++: larger number of root knots (heavier damage than +); details: 25 ppm active ingredient in soil, tomato root, after four weeks
Method: Biological Test 6 Activity Against Root-knot Nematodes
One ml of a 500 ppm aqueous solution of each of the present compounds obtained by diluting each emulsifiable concentrate prepared from each of the present compounds according to the formulation example 1 was mixed with 19 g of soil contaminated with root-knot nematodes (concentration of active ingredient in soil: 25 ppm). After the soil was kept at 27° C. for 24 hours, the root of a tomato plant (approximately two weeks after sprouting) in a cup was covered with the soil and some water was given to the plant. After four weeks, damage to the root of the tomato plant was evaluated according to the following criteria:
-: substantially no root knots
+: several to ten odds root knots
++: larger number of root knots (heavier damage than +)

[6] = system: larvae of Culex pipiens pallens; test: Insecticidal activity against larvae of Culex pipiens pallens; assay type: in vivo; details: 3.5 ppm active ingredient in water, twenty last-instar larvae, after one day
Method: Biological Test 7 Insecticidal Activity Against Larvae of Culex pipiens pallens
Each of emulsifiable concentrates prepared from each of the present compounds according to the formulation example 1 was diluted with water, and 0.7 ml of the diluted solution was added to 100 ml of ion-exchanged water (concentration of active ingredient: 3.5 ppm). Twenty last-instar larvae of Culex pipiens pallens were left in the water. After one day, the activity was evaluated according to the following criteria:
A: Mortality not less than 90%
B: Mortality not less than 10% but less than 90%
C: Mortality less than 10%

[7] = system: Tetranychus cinnabarinus; test: Activity against Tetranychus cinnabarinus; assay type: in vivo; parameters: key: -: substantially no damage; +: little damage; ++: heavy damage; details: 500 ppm, 15 ml spray plus 2 ml soil injection, kidney bean, after eight days
Method: Biological Test 8 Activity Against Tetranychus cinnabarinus
Ten male mites (Tetranychus cinnabarinus) per leaf were placed on a pot-planted kidney bean (Phasseolus vulgaris: seven days after sowing) and kept in a thermostatic chamber. After six days, 15 ml of a 500 ppm aqueous solution obtained by diluting each emulsifiable concentrate of each of the present compounds according to the formulation example 1 was sprayed in a pot simultaneously with injection of 2 ml of the solution into soil. After eight days, damage to the plant by Tetranychus cinnabarinus was evaluated according to the following criteria:
-: substantially no damage

[8] = Acute toxicity in oral application to mice; details: mouse, in vivo, 30 mg/kg, ICR male mice, after seven days
Method: Biological Test 9 Acute Toxicity in Oral Application to Mice
Each of the present compound was diluted with corn oil to a predetermined concentration. After subjecting the mice to a twenty-hour fasting, 0.1 ml of the diluted solution per 10 g weight was forcibly applied into the stomach of each ICR male 6-week old mouse (weight: 24 to 31 g). The mice were given food and water four hours after the application and thereafter regularly fed and watered, and kept in a cage. After seven days, the mortality was examined for the mice (4 mice/group).

Row | Compound | mortality at 500 ppm [1] [%] | mortality at 500 ppm [2] [%] | mortality at 500 ppm [3] [%] | Activity [4] | Activity [5] | Activity [6] | Activity [7] | mortality at 168 h [8] [%]
1 | CCOP(=O)(SC(C)CC)N(CCC#N)C(=O)SC (stereo not shown) [Compound 13] | 100 | 100 | 100 | A (Mortality 100%) | - | A (Mortality not less than 90%) | - | 0
2 | CCOP(=O)(SC(C)CC)N(CC#N)C(=O)OC (stereo not shown) [Compound 9, O-ethyl S-sec-butyl N-cyanomethyl N-methoxycarbonyl phosphoroamidothiolate] | 100 | 100 | 100 | A (Mortality 100%) | - | A (Mortality not less than 90%) | - | 0
